From article PMC11344848, “Proximity-driven site-specific cyclization of phage-displayed peptides” (Nature Communications, 2024)
Positions of bridges follow the written chain, without caps; N, C: chain ends. No end group written: not given here.

Assays:
[1] = target: T1, streptavidin (Streptomyces avidinii, UniProt P22629); test: Streptavidin-binding phage ELISA; conditions: for Phage ELISA signal, Linear: Figure 6a, peptide linear (reduced using DTT), bound phage detected with anti-M13-HRP; for Phage ELISA signal, Linear / Phage ELISA signal, Lin: phage clone; for Phage ELISA signal, Lin: Figure 6b, peptide linear; for Binding to streptavidin in phage ELISA (in words): phage-displayed peptide, form as stated in the sentence (CCA replaced with linkers 1, 2, 3 or 4; CCA-cyclized negative control)
T1 sequence (P22629 25-183): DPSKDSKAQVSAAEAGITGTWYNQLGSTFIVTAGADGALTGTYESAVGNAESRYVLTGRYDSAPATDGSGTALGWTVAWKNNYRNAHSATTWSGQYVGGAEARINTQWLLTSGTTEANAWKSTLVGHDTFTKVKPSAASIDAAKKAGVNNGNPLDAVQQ
Procedure: All incubation steps were performed at room temperature unless otherwise stated. A Pierce™ streptavidin-coated 96 well plate (Thermo Fisher Scientific) was treated O/N at 4 °C with biotinylated antigen (50 µL/well, 10 ng/µL in assay buffer). The next day, the plate was washed x3 with PBS to remove unbound antigen and incubated for 1 h with blocking buffer (300 µL/ well). At the same time, phage cultures (100 µL, ~ 10^10) were incubated for 1 h with blocking buffer (400 µL).
The 96-well plate was washed x3 with PBS and subsequently incubated with blocked phage (50 µL/ well) for 1 h. The plate was washed x3 with PBST, and bound phage was detected via the addition of anti-M13 HRP conjugated secondary antibody (50 µL/ well, 1/5000 dilution in blocking buffer, Abcam). After 1 h, the plate was washed x3 with PBST. HRP was developed using TMB substrate (50 µL/ well, Thermo Fisher Scientific), quenched after 5 min with H2SO4 (50 µL/ well, 0.5 M) and visualised at λ = […] using an EnVision Microplate Reader (PerkinElmer). Data was processed using SoftMax® Pro Software v7. […]
Biotinylated antigen = none required, assay buffer = N/A, blocking buffer = 3% (w/v) mPBS.

[2] = target: T1, streptavidin; test: Sequencing of clones enriched after three rounds of selection of library L1-CCA against streptavidin; conditions: clones sequenced after three rounds of selection against streptavidin
Procedure: Streptavidin-coated magnetic Dynabeads™ (50 μL/ selection, prewashed with 1 mL PBS) were blocked with 3% (w/v) mPBS (1 mL) for 1 h on a rotary mixer at room temperature and 20 RPM. L1 phage particles (~ 10^11) were reduced with DTT (1 mM) for 30 min at 37 °C in PBS (total reaction volume = 100 µL). The beads were pelleted on a magnetic stand and reduced L1 phage particles (~ 10^11) were added. After 1 h on a rotary mixer at room temperature and 20 RPM, the beads were pelleted and the supernatant was transferred to a fresh Eppendorf. Linker CCA (final concentration = 150 µM) in DMSO (5% total volume) was added and the reaction was left to incubate for 2 h at room temperature.
L1-CCA: Output phage from the negative streptavidin selection above.
L1-Red/ L1-CCA input phage (~ 10^11) and streptavidin-coated magnetic Dynabeads™ (50 μL/ selection, prewashed with 1 mL PBS) were incubated with 3% (w/v) mPBS (volume made up to 500 μL for phage, 1 mL for beads) for 1 h on a rotary mixer at room temperature and 20 RPM. The beads were pelleted on a magnetic stand and resuspended in 3% (w/v) mPBS (100 μL). An aliquot of the blocked beads (50 μL) was added to the blocked phage. The mixture was incubated for 1 h on a rotary mixer at room temperature and 20 RPM.
Using a Kingfisher mL apparatus, the beads were washed x5 with PBST (1 mL) and eluted into trypsin solution (10 µg/ mL trypsin in 0.1 M pH 7.0 sodium phosphate buffer, 200 µL). Trypsin digest was performed for 30 min at 37 °C and 600 RPM, the beads were pelleted and the supernatant was added to OD600nm = 0.6 TG1 E. coli (800 µL). After 1 h at 37 °C and 250 RPM, output titres were performed and the remaining cells were plated O/N on a 2xTYAG bioassay plate at 37 °C. The next day, the cells were harvested from the plate, as described below.

[3] = tested on: Ph1 phage particles; test: Phage infectivity studies (titre of infective phage after linker treatment); conditions: Figure 4d; phage treated with DTT (1 mM) only
Procedure: CCA: Ph1 phage particles (~ 10^11) were reduced with DTT (1 mM) for 30 min at 37 °C in a total volume of 95 µL. Linker CCA (final concentration = 150 µM) in DMSO (5% total volume) was added and the reaction was left to incubate for 2 h at room temperature. DBX: Ph1 phage particles (~ 10^11) were reduced with TCEP (1 mM) for 30 min at 37 °C in a total volume of 95 µL. Reduced Ph1 phage particles were buffer exchanged into NH4HCO3 (20 mM, pH 8.0) using Zeba™ Spin Desalting Columns (7 K MWCO, 0.5 mL) following the manufacturer’s instructions. Linker DBX (final concentration = 150 µM) in DMSO (5% total volume) was added and the reaction was left to incubate for 2 h at room temperature.
For each sample, two 100-fold dilutions in 2xTY were prepared. An aliquot (10 μL) of the 10^−4 dilution sample was added to TG1 E. coli (990 µL) grown to OD600nm = 0.6. After 1 h of infection at 37 °C and 150 RPM, four further 10-fold dilutions in 2xTY were prepared (10^−7 – 10^−10). Aliquots (100 µL) of dilution samples 10^−7 – 10^−10 were plated O/N on 2xTYAG agar at 37 °C. The next day, phage titres were calculated according to the equation.
Cfu/mL = [No. of colonies] x [Dilution factor] x [1/Volume plated (mL)].

[4] = target: T1, streptavidin; test: SPR binding of synthetic peptides to immobilised streptavidin (Biacore 8K); conditions: synthetic peptide as disulphide-bonded entity, 25 °C, 4.1-9000 nM, HBS-EP+ pH 7.4
Procedure: The affinity of peptides Str1 and Str1-CCA to streptavidin was measured using the Biacore 8 K (GE Healthcare) at 25 °C.
For cyclization, peptide Str1 (5 mg, GL Biochem) was dissolved in PBS (20 mL) and treated with DTT (1.2 eq.) for 1 h at RT then linker CCA (2 eq.) for 3 h at RT. The reaction was purified by RP-HPLC and characterised by LC-MS to confirm the correct identity of the cyclized product, Str1-CCA. Str1 = 1351 Da and Str1-CCA = 1601 Da.
Streptavidin was covalently immobilised to a CM5 chip surface (Cytiva, BR100530, lot 10340325) using standard amine coupling techniques at a concentration of 16 µg/ml in 10 mM sodium acetate pH 4.5.
The peptides were serially diluted (4.1 – 9000 nM) in HBS-EP + buffer pH 7.4 and flowed over the chip at 30 µL/min, with 180 s association and 600 s dissociation. Multiple buffer-only injections were made under the same conditions to allow for double reference subtraction of the final sensorgram sets, which were analysed using Biacore 8 K Evaluation Software. Each experiment was repeated three times, which gave consistent results. Representative results are presented in the paper.

## CPFNIASPFYGC [Str6, phage clone displaying streptavidin-selected peptide]
[1]
  Phage ELISA signal, Linear: 0.254
[2]
  Abundance (Total = 96): 12

## CPYNIAGPPLYC [Str3, phage clone displaying streptavidin-selected peptide]
[1]
  Phage ELISA signal, Linear: 0.123
[2]
  Abundance (Total = 96): 13

## CPYNVERPDSHC [Str8, phage clone displaying streptavidin-selected peptide]
[1]
  Phage ELISA signal, Linear: 0.029
[2]
  Abundance (Total = 96): 2

## CPINVQYSTGTC [Str7, phage clone displaying streptavidin-selected peptide]
[1]
  Phage ELISA signal, Linear: 0.032
  Phage ELISA signal, Lin: 0.106
  Binding to streptavidin in phage ELISA (in words): no binding
[2]
  Abundance (Total = 96): 1

## CPFNILVPFIDC [Str4, phage clone displaying streptavidin-selected peptide]
[1]
  Phage ELISA signal, Linear: 0.254
[2]
  Abundance (Total = 96): 5

## CGGSGGC [negative control phage construct, reference compound]
[1]
  Phage ELISA signal, Linear: 0.052
  Phage ELISA signal, Lin: 0.065
  Binding to streptavidin in phage ELISA (in words): No binding

## CPFNIKNPDDGC [Str2, phage clone displaying streptavidin-selected peptide]
[1]
  Phage ELISA signal, Linear: 0.111
[2]
  Abundance (Total = 96): 7

## CPYNIINPTFDC [Str5, phage clone displaying streptavidin-selected peptide]
[1]
  Phage ELISA signal, Linear: 0.096
[2]
  Abundance (Total = 96): 8

## O[C@@H](CS)[C@@H](O)CS [DTT, reference compound]
[3]
  Phage titre: 1.30E+11 Cfu/mL

## CPTNTQYDLTIC
[2]
  Abundance (Total = 96): 4

## CWLNHPQAPPEC [reference compound]
[1]
  Phage ELISA signal, Linear: 1.437

## CPFNFFIWNDEC [Str9, phage clone displaying streptavidin-selected peptide]
[1]
  Phage ELISA signal, Linear: 0.315
[2]
  Abundance (Total = 96): 2

## CPINIFHPPPDC (disulfide 1-12 (inferred)) [Str1, streptavidin-selected peptide; tested as phage clone and as synthetic disulphide-bonded peptide]
[4]
  SPR signal (in words): no SPR signal observed
[1]
  Phage ELISA signal, Linear: 0.115
[2]
  Abundance (Total = 96): 42
